The supplement of paper PMC11061612

Legend:
Carboplatin = compound: C1CC(C1)(C(=O)[O-])C(=O)[O-].N.N.[Pt+2] [Carboplatin]; details: max 10 µM
In short: (§1)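 Following 24 hours at 37°C and 5% CO2, cancer cell lines in 1536-well plates with 7.5 μl DMEM/F12 or RPMI and 10% FBS were dosed for 72 hours, final DMSO typically being 0.2%. CellTiter-Glo 2.0 luminescence, scaled between blank-well and DMSO-well means, gave the viability readout. Dose responses were fitted to a two-parameter logistic curve with a non-linear mixed effects model, and the single-agent IC50 was derived from this fit.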

AZD5363 = compound: C1CN(CCC1(C(=O)N[C@@H](CCO)C2=CC=C(C=C2)Cl)N)C3=NC=NC4=C3C=CN4 [AZD5363]; details: max 10 µM
In short: as §1

AZD1775 = compound: C=CCn1c(=O)c2cnc(Nc3ccc(N4CCN(C)CC4)cc3)nc2n1-c1cccc(C(C)(C)O)n1 [AZD1775]; details: max 3 µM
In short: as §1

Trametinib = compound: CC(=O)Nc1cccc(-n2c(=O)n(C3CC3)c(=O)c3c(Nc4ccc(I)cc4F)n(C)c(=O)c(C)c32)c1 [Trametinib]; details: max 1 µM
In short: as §1

Paclitaxel = compound: CC(=O)O[C@H]1C(=O)[C@@]2(C)[C@H]([C@H](OC(=O)c3ccccc3)[C@]3(O)C[C@H](OC(=O)[C@H](O)[C@@H](NC(=O)c4ccccc4)c4ccccc4)C(C)=C1C3(C)C)[C@]1(OC(C)=O)CO[C@@H]1C[C@@H]2O [Paclitaxel]; details: max 3 µM
In short: as §1

Palbociclib = compound: CC(=O)c1c(C)c2cnc(Nc3ccc(N4CCNCC4)cn3)nc2n(C2CCCC2)c1=O [Palbociclib]; details: max 10 µM
In short: as §1

AZD1390 = compound: CC(C)n1c(=O)n(C)c2cnc3cc(F)c(-c4ccc(OCCCN5CCCCC5)nc4)cc3c21 [AZD1390]; details: max 0.3 µM
In short: as §1

Venetoclax = compound: CC1(C)CCC(CN2CCN(c3ccc(C(=O)NS(=O)(=O)c4ccc(NCC5CCOCC5)c([N+](=O)[O-])c4)c(Oc4cnc5[nH]ccc5c4)c3)CC2)=C(c2ccc(Cl)cc2)C1 [Venetoclax]; details: max 1 µM
In short: as §1

Dasatinib = compound: CC1=C(C(=CC=C1)Cl)NC(=O)C2=CN=C(S2)NC3=CC(=NC(=N3)C)N4CCN(CC4)CCO [Dasatinib]; details: max 2 µM
In short: as §1

SG3199 = compound: CC1=CN2[C@@H](C1)C=NC3=CC(=C(C=C3C2=O)OC)OCCCCCOC4=C(C=C5C(=C4)N=C[C@@H]6CC(=CN6C5=O)C)OC [SG3199]; details: max 0.001 µM
In short: as §1

AZD2811 = compound: CCN(CCO)CCCOc1ccc2c(Nc3cc(CC(=O)Nc4cccc(F)c4)[nH]n3)ncnc2c1 [AZD2811]; details: max 1 µM
In short: as §1

SN-38 = compound: CCc1c2c(nc3ccc(O)cc13)-c1cc3c(c(=O)n1C2)COC(=O)[C@]3(O)CC [SN-38]; details: max 0.3 µM
In short: as §1

AZD0156 = compound: CN(C)CCCOc1ccc(-c2ccc3ncc4c(c3c2)n(C2CCOCC2)c(=O)n4C)cn1 [AZD0156]; details: max 3 µM
In short: as §1

AZD4320 = compound: CN(CC[C@H](CSC1=CC=CC=C1)NC2=C(C=C(C=C2)S(=O)(=O)NC(=O)C3=CC=C(C=C3)N4CCC(CC4)[C@H](C5=CC=CC=C5C6=CC=C(C=C6)Cl)O)S(=O)(=O)C(F)(F)F)CCO [AZD4320]; details: max 1 µM
In short: as §1

Alisertib = compound: COc1cc(Nc2ncc3c(n2)-c2ccc(Cl)cc2C(c2c(F)cccc2OC)=NC3)ccc1C(=O)O [Alisertib]; details: max 10 µM
In short: as §1

Etoposide = compound: COc1cc([C@@H]2c3cc4c(cc3[C@@H](O[C@@H]3O[C@@H]5CO[C@@H](C)O[C@H]5[C@H](O)[C@H]3O)[C@H]3COC(=O)[C@H]23)OCO4)cc(OC)c1O [Etoposide]; details: max 10 µM
In short: as §1

Gefitinib = compound: COc1cc2ncnc(Nc3ccc(F)c(Cl)c3)c2cc1OCCCN1CCOCC1 [Gefitinib]; details: max 10 µM
In short: as §1

Prexasertib = compound: COc1cccc(OCCCN)c1-c1cc(Nc2cnc(C#N)cn2)n[nH]1 [Prexasertib]; details: max 1 µM
In short: as §1

Doxorubicin = compound: COc1cccc2c1C(=O)c1c(O)c3c(c(O)c1C2=O)C[C@@](O)(C(=O)CO)C[C@@H]3O[C@H]1C[C@H](N)[C@H](O)[C@H](C)O1 [Doxorubicin]; details: max 1 µM
In short: as §1

AZD5153 = compound: COc1nnc2ccc(N3CCC(c4ccc(OCCN5CCN(C)C(=O)[C@H]5C)cc4)CC3)nn12 [AZD5153]; details: max 1 µM
In short: as §1

Lapatinib = compound: CS(=O)(=O)CCNCc1ccc(-c2ccc3ncnc(Nc4ccc(OCc5cccc(F)c5)c(Cl)c4)c3c2)o1 [Lapatinib]; details: max 10 µM
In short: as §1

AZD8186 = compound: C[C@@H](Nc1cc(F)cc(F)c1)c1cc(C(=O)N(C)C)cc2c(=O)cc(N3CCOCC3)oc12 [AZD8186]; details: max 10 µM
In short: as §1

Crizotinib = compound: C[C@@H](Oc1cc(-c2cnn(C3CCNCC3)c2)cnc1N)c1c(Cl)ccc(F)c1Cl [Crizotinib]; details: max 10 µM
In short: as §1

Savolitinib = compound: C[C@@H](c1ccc2nccn2c1)n1nnc2ncc(-c3cnn(C)c3)nc21 [Savolitinib]; details: max 1 µM
In short: as §1

AZD6738 = compound: C[C@@H]1COCCN1C2=NC(=NC(=C2)C3(CC3)[S@](=N)(=O)C)C4=C5C=CNC5=NC=C4 [AZD6738]; details: max 10 µM
In short: as §1

AZD5991 = compound: Cc1c2c(nn1C)CSCc1cc(n(C)n1)CSc1cc(c3ccccc3c1)OCCCc1c(C(=O)O)n(C)c3c-2c(Cl)ccc13 [AZD5991]; details: max 1 µM
In short: as §1

AZD7648 = compound: Cc1cc2ncnn2cc1Nc1ncc2c(n1)n(C1CCOCC1)c(=O)n2C [AZD7648]; details: max 10 µM
In short: as §1

Taselisib = compound: Cc1nc(-c2cn3c(n2)-c2ccc(-c4cnn(C(C)(C)C(N)=O)c4)cc2OCC3)n(C(C)C)n1 [Taselisib]; details: max 10 µM
In short: as §1

Selumetinib = compound: Cn1cnc2c(F)c(Nc3ccc(Br)cc3Cl)c(C(=O)NOCCO)cc21 [Selumetinib]; details: max 10 µM
In short: as §1

SRA737 = compound: N#Cc1cnc(Nc2cc(NC[C@H]3CNCCO3)c(C(F)(F)F)cn2)cn1 [SRA737]; details: max 10 µM
In short: as §1

MK-2206 = compound: NC1(c2ccc(-c3nc4ccn5c(=O)[nH]nc5c4cc3-c3ccccc3)cc2)CCC1 [MK-2206]; details: max 10 µM
In short: as §1

Gemcitabine = compound: Nc1ccn([C@@H]2O[C@H](CO)[C@@H](O)C2(F)F)c(=O)n1 [Gemcitabine]; details: max 0.3 µM
In short: as §1

[1] = compound: O=C(Nc1ccc2[nH]nc(-c3ccncc3)c2c1)[C@@H]1CCN(CC(=O)N2CCN(c3ccc(-c4ncccn4)cc3)CC2)C1; details: max 5 µM
In short: as §1

Olaparib = compound: O=C(c1cc(Cc2n[nH]c(=O)c3ccccc23)ccc1F)N1CCN(C(=O)C2CC2)CC1 [Olaparib]; details: max 10 µM
In short: as §1

5-Fluorouracil = compound: O=c1[nH]cc(F)c(=O)[nH]1 [5-Fluorouracil]; details: max 20 µM
In short: as §1

Row | Cell Line | IC50, cell viability 72 h (Carboplatin) [nM] | IC50, cell viability 72 h (AZD5363) [nM] | IC50, cell viability 72 h (AZD1775) [nM] | IC50, cell viability 72 h (Trametinib) [nM] | IC50, cell viability 72 h (Paclitaxel) [nM] | IC50, cell viability 72 h (Palbociclib) [nM] | IC50, cell viability 72 h (AZD1390) [nM] | IC50, cell viability 72 h (Venetoclax) [nM] | IC50, cell viability 72 h (Dasatinib) [nM] | IC50, cell viability 72 h (SG3199) [nM] | IC50, cell viability 72 h (AZD2811) [nM] | IC50, cell viability 72 h (SN-38) [nM] | IC50, cell viability 72 h (AZD0156) [nM] | IC50, cell viability 72 h (AZD4320) [nM] | IC50, cell viability 72 h (Alisertib) [nM] | IC50, cell viability 72 h (Etoposide) [nM] | IC50, cell viability 72 h (Gefitinib) [nM] | IC50, cell viability 72 h (Prexasertib) [nM] | IC50, cell viability 72 h (Doxorubicin) [nM] | IC50, cell viability 72 h (AZD5153) [nM] | IC50, cell viability 72 h (Lapatinib) [nM] | IC50, cell viability 72 h (AZD8186) [nM] | IC50, cell viability 72 h (Crizotinib) [nM] | IC50, cell viability 72 h (Savolitinib) [nM] | IC50, cell viability 72 h (AZD6738) [nM] | IC50, cell viability 72 h (AZD5991) [nM] | IC50, cell viability 72 h (AZD7648) [nM] | IC50, cell viability 72 h (Taselisib) [nM] | IC50, cell viability 72 h (Selumetinib) [nM] | IC50, cell viability 72 h (SRA737) [nM] | IC50, cell viability 72 h (MK-2206) [nM] | IC50, cell viability 72 h (Gemcitabine) [nM] | IC50, cell viability 72 h [1] [nM] | IC50, cell viability 72 h (Olaparib) [nM] | IC50, cell viability 72 h (5-Fluorouracil) [nM]
1 | 8305C (Thyroid Gland Carcinoma) | > 10000 | > 10000 | 1940 | 902 | 159 | > 10000 | > 300 | > 1000 | 1150 | > 1 | > 1000 | > 300 | > 3000 | > 1000 | > 10000 | > 10000 | > 10000 | 87.8 | > 1000 | > 1000 | > 10000 | > 10000 | > 10000 | > 1000 | > 10000 | > 1000 | > 10000 | 1280 | > 10000 | > 10000 | > 10000 | > 300 | > 5000 | > 10000 | > 20000
2 | SUP-T1 (T-Lymphoblastic Leukemia) | > 10000 | 3600 | 272 | > 1000 | 13.6 | 2360 | > 300 | > 1000 | > 2000 | > 1 | > 1000 | 3.19 | > 3000 | > 1000 | 1590 | 805 | > 10000 | 21.8 | 145 | 117 | > 10000 | > 10000 | 2730 | > 1000 | 3280 | > 1000 | > 10000 | 1730 | > 10000 | 7670 | 7710 | 16.7 | > 5000 | > 10000 | > 20000
3 | OC-314 (Ovarian Carcinoma) | > 10000 | > 10000 | 671 | > 1000 | 5.9 | > 10000 | > 300 | > 1000 | 205 | > 1 | > 1000 | 8.72 | > 3000 | > 1000 | 6230 | 876 | > 10000 | 39.4 | 63.9 | 70.9 | > 10000 | 7390 | > 10000 | > 1000 | 2610 | > 1000 | > 10000 | 1600 | > 10000 | > 10000 | > 10000 | 34.4 | > 5000 | > 10000 | 17800
